# Experimental data reported in patent publication US20100009395A1, “LUMINESCENCE ASSAY UTILIZING A GENETICALLY MODIFIED CELL LINE” (priority 2006, published 2010).
# Entries after “also recorded” stand apart in the source; their conditions may differ.
# Legend:
# Assay type in all cases: cell-based
# [1] = test system: I-kappa B-luciferase (IkB-Luc) fusion protein; assay: IkB-Luc degradation luciferase (luminescence imaging) assay in stably transfected HCT-116 cells; details: human urine sample two hours after ingestion of 8 g curcumin
# Experimental: This construct has been transfected into HeLa and HCT-116 cells.
# The substrate for luciferase, D-luciferin was also added to the cells at the same time, and the cells were incubated in extremely light-tight, low-background imaging chamber, at 37° C. Photon luminescence emitted from the cells is detected with a back-thinned CCD camera, designed for high-efficiency photon detection, particularly in the important red region of the spectrum.
# The imaging assay cells were plated in a 24 well dish and allowed to grow for 24 hours; they were then treated with 10 ng/ml TNF-alpha, the substrate for luciferase, D-luciferin was also added at the same time, the cells were then incubated in a light-tight, low background imaging chamber, at 37° C.
# Photon luminescence emitted from the cells was detected with a back-thinned CCD camera, designed for high-efficiency photon detection. The CCD is cooled and the electronic readout is optimized so that the data gathered extremely low noise.
# HCT-116 cells stably expressing I-kB-Luc were incubated for 2 hours with increasing concentrations (0-1000 μl) control or post-curcumin ingested urine. Subsequently, some of the cells were treated with TNF-alpha. The level of I-kB degradation was determined by the luciferase assay. […] Similar experiments were conducted with black raspberry extracts.
# [2] = test system: COX-2 gene expression; assay: COX-2 expression in HCT-116 cells after induction with TNF-alpha, EGF or IL-1; details: 1 hour pre-incubation, then TNF-alpha, EGF or IL-1 for 1 hour
# Experimental: Endogenous levels of COX-2 were determined following addition of the three botanical extracts. After incubating the HCT-116 cells with the different fractions for 1 hour, the cells were treated with TNF-alpha, EGF or IL-1 […] (all known inducers of COX-2 expression) for an additional 1 hour to induce high levels of COX-2 expression.
# [3] = test system: native I-kappa B and I-kappa B-luciferase (IkB-Luc); assay: Western blot of total cell lysates from TNF-alpha-treated HCT-116 cells; details: incubation with TNF-alpha
# Experimental: In this experiment the degradation of I-kappa B was investigated. The I-kappa B was stably expressed as a fusion protein with the firefly luciferase in HCT-116 colon cancer cells. Presence of I-kappa B can then be monitored by luminescence activity. It was determined that the fusion protein is subject to similar levels of degradation in response to a stimulus such as tumor necrosis factor-alpha (TNF-alpha), a known inducer of phosphorylation and degradation of I-kappa B, as would be the case with the native of I-kappa B. Western blot analyses of total cell lysates from TNF-alpha-treated cells were subjected to western blot analyses. Both, native I-kappa B and I-kappa B-luciferase (IkB-Luc) levels were decreased within 20 minutes of incubation with TNF-alpha.
Compound,protection of IkB-Luc from TNF-alpha-mediated degradation [1],protection of IkB-Luc from TNF-alpha-mediated degradation ([1]; listed as cucurmin),COX-2 gene expression [2],time to decrease of native I-kappa B and IkB-Luc levels [3] [min]
COc1cc(/C=C/C(=O)CC(=O)/C=C/c2ccc(O)c(OC)c2)ccc1O [curcumin],significant increase in the protection of the IkB-Luc from TNF-alpha-mediated degradation; also recorded: reduced the TNF degradation of I kappa B-Luc,significantly inhibited the IkB-Luc degradation,inhibitor of COX-2 gene expression,–
TNF-alpha,–,–,–,≤ 20
